According to publication PMC7340446, “Optimization of PTH/PTHrP Hybrid Peptides to Derive a Long‐Acting PTH Analog (LA‐PTH)” (JBMR Plus, 2020):
Each block holds one compound with its values, some of them ahead of it. Where no end group is shown, it is not given here.

Legend:
TPTX rats = conditions: orally available agonist; cited from earlier work
From the text: The low solubility observed for M‐PTH/PTHrP and related analogs containing the C‐terminal PTHrP(15–36) sequence when prepared at high concentrations in aqueous neutral buffer led us to explore amino acid substitutions that would improve solubility yet preserve activity on the PTHR1. […] The resulting analog, [Ala^1,3,12,18,22,Gln^10,Arg^11,Trp^14,Lys^26]‐PTH(1‐14)/PTHrP(15–36), ...

[1] = Pharmacokinetics in normal rats, i.v., plasma peptide by ELISA; format: in vivo, rat; conditions: i.v. 10 nmol/kg, plasma with protease inhibitors, n = 4 (M‐PTH/PTHrP) or 3 (PTH(1–34))
Procedure: For pharmacokinetic studies, plasma samples were prepared in the presence of protease inhibitors (aprotinin, leupeptin, EDTA). Plasma levels of PTH(1–34) were assessed by ELISA assay (Human PTH(1–34) Specific ELISA Kit; Immutopics Inc, San Clemente, CA, USA), and plasma levels of M‐PTH/PTHrP were assessed by ELISA assay (PTH‐RP 1–34 Human Enzyme Immunoassay Kit; Peninsula Laboratories International, San Carlos CA, USA) using M‐PTH/PTHrP peptides as standard solutions.
Figure 3 Pharmacodynamic and pharmacokinetic profiles of M‐PTH/PTHrP and PTH(1–34) in rats. (A) Effects of M‐PTH/PTHrP and PTH(1–34) on blood ionized Ca in TPTX rats by i.v. injection. M‐PTH/PTHrP and PTH(1–34) were injected intravenously in TPTX rats at the indicated doses, and blood samples were collected from the tail vein measured for ionized Ca; data are means ± SE; n = 5 or 3 (PTH(1–34)). *p < 0.05, **p < 0.01, ***p < 0.005 M‐PTH/PTHrP or PTH(1–34) versus TPTX‐vehicle. […] M‐PTH/PTHrP and PTH(1–34) each at a dose of 10 nmol/kg were i.v. administered, and blood samples were collected from the jugular vein in the presence of proteinase inhibitors (Aprotinin, Leupeptin, and EDTA) and the plasma samples were assessed for peptide concentration using a hPTHrP(1–34)‐targeted EIA for M‐PTH/PTHrP and an hPTH(1–34)‐targeted ELISA for PTH(1–34). […]

[2] = Peptide solubility in aqueous buffers of neutral pH; format: physicochemical; conditions: lyophilized peptide reconstituted at 1.5 mg/cc in PBS pH 7.4 or 10‐mM acetic acid, 24 hours room temperature, centrifuged, supernatant by BCA protein assay; versus M‐PTH(1‐14)/PTHrP(15‐36)
[3] = tested on: amino‐terminal ECD portion of the PTH receptor; conditions: cited from earlier work
From the text: In this study, we systematically explored a series of hybrid molecules composed of PTH and PTHrP.

Compound: Cc1cc(N2C(=O)NC(=O)C2(C)C)cc(C)c1CCS(=O)(=O)N1CCC2(CC1)N=C(c1ccc(OC(F)(F)F)cc1)NC2=O [PCO371]
- Effect on sCa and sPi levels (TPTX rats): restore sCa and lower sPi levels

- Time by which plasma concentration declined to the lowest detection level [1]: ≤ 60 min
Compound: CC[C@H](C)[C@H](NC(=O)[C@H](CCC(=O)O)NC(=O)[C@H](CO)NC(=O)[C@@H](NC(=O)[C@@H](N)CO)C(C)C)C(=O)N[C@@H](CCC(N)=O)C(=O)N[C@@H](CC(C)C)C(=O)N[C@@H](CCSC)C(=O)N[C@@H](Cc1cnc[nH]1)C(=O)N[C@@H](CC(N)=O)C(=O)N[C@@H](CC(C)C)C(=O)NCC(=O)N[C@@H](CCCCN)C(=O)N[C@@H](Cc1cnc[nH]1)C(=O)N[C@@H](CC(C)C)C(=O)N[C@@H](CC(N)=O)C(=O)N[C@@H](CO)C(=O)N[C@@H](CCSC)C(=O)N[C@@H](CCC(=O)O)C(=O)N[C@@H](CCCN=C(N)N)C(=O)N[C@H](C(=O)N[C@@H](CCC(=O)O)C(=O)N[C@@H](Cc1c[nH]c2ccccc12)C(=O)N[C@@H](CC(C)C)C(=O)N[C@@H](CCCN=C(N)N)C(=O)N[C@@H](CCCCN)C(=O)N[C@@H](CCCCN)C(=O)N[C@@H](CC(C)C)C(=O)N[C@@H](CCC(N)=O)C(=O)N[C@@H](CC(=O)O)C(=O)N[C@H](C(=O)N[C@@H](Cc1cnc[nH]1)C(=O)N[C@@H](CC(N)=O)C(=O)N[C@@H](Cc1ccccc1)C(=O)O)C(C)C)C(C)C [PTH(1‐34), reference compound]

- Peptide solubility in PBS relative to 10 mM acetic acid [2]: improved peptide solubility
Compound: AVAEIQLMHQRAKWIQDARRRAFLHKLIAEIHTAEI [LA‐PTH, [Ala^1,3,12,Gln^10,Arg^11,Trp^14]PTH(1‐14)/[Ala^18,22,Lys^26]PTHrP(15‐36)COOH]

Compound: PTHrP(15–36): C‐terminal PTHrP fragment binding the receptor ECD (IQDLRRRFFLHHLIAEIHTAEI; Parathyroid hormone-related protein; UniProt P12272 51-72, looked up, fragment)
- Affinity for the ECD relative to the PTH(15–34) fragment [3]: approximately twofold higher affinity
